Test results: ChEMBL document CHEMBL4373693, “Virtual Screening Approach and Investigation of Structure-Activity Relationships To Discover Novel Bacterial Topoisomerase Inhibitors Targeting Gram-Positive and Gram-Negative Pathogens” (J Med Chem, 2019)
In brackets after ≈: the same amount, converted by molar mass.

Columns and labels:
[1] = Inhibition of Escherichia coli DNA topoisomerase 4
Escherichia coli [2] = experiment: Antibacterial activity against Escherichia coli; assay type: functional
Staphylococcus aureus [3] = experiment: Antibacterial activity against Staphylococcus aureus; assay type: functional
DNA gyrase [4] = target: T1, DNA gyrase (Escherichia coli, UniProt P0AES4+P0AES6); experiment: Inhibition of Escherichia coli DNA gyrase; assay type: protein-complex assay
[5] = Inhibition of Escherichia coli topoisomerase 4 after 24 hrs by ATPase assay
Escherichia coli [6] = experiment: Antibacterial activity against Escherichia coli ATCC 25922 by CLSI method; assay type: functional
DNA gyrase [7] = target: T1, DNA gyrase; experiment: Inhibition of Escherichia coli DNA gyrase assessed as reduction in enzyme-mediated supercoiling of relaxed plasmid by fluorescence polarization assay; assay type: protein-complex assay
Escherichia coli [8] = experiment: Selectivity ratio of MIC for Escherichia coli ATCC 25922 in presence of 50% human serum to MIC for Escherichia coli ATCC 25922; assay type: functional
Enterococcus faecium [9] = experiment: Antibacterial activity against vancomycin resistant and teicoplanin sensitive Enterococcus faecium APV 00420 after 16 to 24 hrs by broth microdilution method; assay type: functional
Staphylococcus aureus [10] = experiment: Antibacterial activity against Staphylococcus aureus BAA-1720 in presence of 50% human serum after 16 to 24 hrs by broth microdilution method; assay type: functional
DNA gyrase subunit A [11] = target: DNA gyrase subunit A (Staphylococcus aureus, UniProt P20831); experiment: Inhibition of Staphylococcus aureus ATCC 29213 DNA gyrase A assessed as reduction in enzyme-mediated supercoiling of relaxed pBR322 DNA by ethidium bromide staining based gel electrophoresis method
Pseudomonas aeruginosa = experiment: Antibacterial activity against Pseudomonas aeruginosa ATCC 27853 after 16 to 24 hrs by CLSI method; assay type: functional
HEK293 = experiment: Cytotoxicity against human HEK293 cells after 48 hrs by Alamar blue staining-based fluorometric analysis; assay type: cell-based; conditions: HEK293, 48 h
[12] = target: DNA topoisomerase 4 subunit A (Staphylococcus aureus, UniProt P0C1U9); experiment: Inhibition of Staphylococcus aureus ATCC 29213 DNA topoisomerase 4 subunit ParC assessed as reduction in decatenation of kinetoplast DNA incubated for 30 mins by ethidium bromide staining based gel electrophoresis method
Haemophilus influenzae [13] = experiment: Antibacterial activity against quinolone-sensitive Haemophilus influenzae ATCC 49766 after 16 to 24 hrs by broth microdilution method; assay type: functional
[14] = Selectivity ratio, ratio of IC50 for human HepG2 cells to MIC for Staphylococcus aureus ATCC 29213; assay type: toxicity; conditions: read-out: Selectivity Index
Enterococcus faecalis [15] = experiment: Antibacterial activity against Enterococcus faecalis ATCC 29212 after 16 to 24 hrs by broth microdilution method; assay type: functional
Neisseria gonorrhoeae = experiment: Antibacterial activity against Neisseria gonorrhoeae ATCC 19424 after 16 to 24 hrs by broth microdilution method; assay type: functional
Escherichia coli [16] = experiment: Antibacterial activity against Escherichia coli ATCC 25922 in presence of 50% human serum after 16 to 24 hrs by broth microdilution method; assay type: functional
Haemophilus influenzae [17] = experiment: Antibacterial activity against quinolone-sensitive Haemophilus influenzae H128 after 16 to 24 hrs by broth microdilution method; assay type: functional
[18] = Selectivity ratio, ratio of IC50 for human HEK293 cells to MIC for Escherichia coli ATCC 25922; assay type: toxicity; conditions: read-out: Selectivity Index
[19] = Cytotoxicity against human HCE2 cells incubated for 2 hrs by MTT assay; assay type: cell-based
Escherichia coli [20] = experiment: Antibacterial activity against Escherichia coli ATCC 25922 after 16 to 24 hrs by broth microdilution method; assay type: functional
Staphylococcus aureus [21] = experiment: Selectivity ratio of MIC for Staphylococcus aureus BAA-1720 in presence of 50% human serum to MIC for Staphylococcus aureus BAA-1720; assay type: functional
Staphylococcus aureus [22] = experiment: Antibacterial activity against Staphylococcus aureus BAA-1720 after 16 to 24 hrs by broth microdilution method; assay type: functional
[23] = target: T2, DNA topoisomerase 4 subunit A (Escherichia coli K-12, UniProt P0AFI2); experiment: Inhibition of Escherichia coli ATCC 25922 DNA topoisomerase 4 subunit ParC assessed as reduction in decatenation of kinetoplast DNA incubated for 30 mins by ethidium bromide staining based gel electrophoresis method
T2 sequence (P0AFI2 whole entry): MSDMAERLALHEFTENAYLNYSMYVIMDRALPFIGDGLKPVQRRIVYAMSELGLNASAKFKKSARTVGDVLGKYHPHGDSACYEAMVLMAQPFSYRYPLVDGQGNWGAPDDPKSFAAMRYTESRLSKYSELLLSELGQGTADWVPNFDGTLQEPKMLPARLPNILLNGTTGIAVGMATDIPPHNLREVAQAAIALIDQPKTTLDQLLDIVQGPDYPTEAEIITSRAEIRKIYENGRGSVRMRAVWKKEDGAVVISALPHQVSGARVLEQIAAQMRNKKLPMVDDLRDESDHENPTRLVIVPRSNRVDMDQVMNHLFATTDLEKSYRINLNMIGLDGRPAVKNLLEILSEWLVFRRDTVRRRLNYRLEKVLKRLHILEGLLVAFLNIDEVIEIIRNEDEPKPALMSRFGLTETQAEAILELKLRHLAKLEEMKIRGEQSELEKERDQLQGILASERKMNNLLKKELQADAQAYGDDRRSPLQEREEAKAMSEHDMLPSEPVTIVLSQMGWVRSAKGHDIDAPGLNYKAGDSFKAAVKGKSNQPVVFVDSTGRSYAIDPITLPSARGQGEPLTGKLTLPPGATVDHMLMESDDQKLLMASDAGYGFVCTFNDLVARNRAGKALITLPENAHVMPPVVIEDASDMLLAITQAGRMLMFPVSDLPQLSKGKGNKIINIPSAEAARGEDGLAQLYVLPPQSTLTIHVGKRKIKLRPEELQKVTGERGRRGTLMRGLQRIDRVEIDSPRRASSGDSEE

[24] = Selectivity ratio, ratio of IC50 for human HepG2 cells to MIC for Escherichia coli ATCC 25922; assay type: toxicity; conditions: read-out: Selectivity Index
Staphylococcus aureus [25] = experiment: Antibacterial activity against Staphylococcus aureus ATCC 29213 in presence of 50% human serum after 16 to 24 hrs by broth microdilution method; assay type: functional
DNA gyrase subunit A [26] = target: DNA gyrase subunit A (Escherichia coli K-12, UniProt P0AES4); experiment: Inhibition of Escherichia coli ATCC 25922 DNA gyrase A assessed as reduction in enzyme-mediated supercoiling of relaxed pBR322 DNA by ethidium bromide staining based gel electrophoresis method
Staphylococcus aureus [27] = experiment: Selectivity ratio of MIC for Staphylococcus aureus ATCC 29213 in presence of 50% human serum to MIC for Staphylococcus aureus ATCC 29213; assay type: functional
Staphylococcus aureus [28] = experiment: Antibacterial activity against Staphylococcus aureus ATCC 29213 after 16 to 24 hrs by broth microdilution method; assay type: functional
HT-29 = experiment: Cytotoxicity against human HT-29 cells after 24 hrs by resazurin dye based CellTiter-Blue assay; assay type: cell-based; conditions: HT-29, 24 h
[29] = Selectivity ratio, ratio of IC50 for human HEK293 cells to MIC for Staphylococcus aureus ATCC 29213; assay type: toxicity; conditions: read-out: Selectivity Index
HepG2 = experiment: Cytotoxicity against human HepG2 cells after 48 hrs by Alamar blue staining-based fluorometric analysis; assay type: cell-based; conditions: HepG2, 48 h
Klebsiella pneumoniae = experiment: Antibacterial activity against quinolone-sensitive Klebsiella pneumoniae ATCC 700603 after 16 to 24 hrs by broth microdilution method; assay type: functional
Enterococcus faecalis [30] = experiment: Antibacterial activity against vancomycin-sensitive Enterococcus faecalis APV 00406 after 16 to 24 hrs by broth microdilution method; assay type: functional
Enterococcus faecium [31] = experiment: Antibacterial activity against vancomycin resistant and teicoplanin sensitive Enterococcus faecium APV 00553 after 16 to 24 hrs by broth microdilution method; assay type: functional
Enterococcus faecium [32] = experiment: Antibacterial activity against vancomycin and teicoplanin-resistant Enterococcus faecium APV 00424 after 16 to 24 hrs by broth microdilution method; assay type: functional
hERG (KCNH2) = hERG (KCNH2) (Homo sapiens, UniProt Q12809); experiment: Inhibition of human ERG expressed in CHO cells at 10 uM after 5 mins by automated whole-cell patch clamp relative to control; assay type: cell-based; conditions: CHO cells that express human ERG
Enterococcus faecalis [33] = experiment: Antibacterial activity against vancomycin and teicoplanin-resistant Enterococcus faecalis APV 00409 after 16 to 24 hrs by broth microdilution method; assay type: functional
HaCaT = experiment: Cytotoxicity against human HaCaT cells after 24 hrs by resazurin dye based CellTiter-Blue assay; assay type: cell-based
Enterococcus faecalis [34] = experiment: Antibacterial activity against vancomycin and teicoplanin-resistant Enterococcus faecalis APV 00408 after 16 to 24 hrs by broth microdilution method; assay type: functional
Enterococcus faecalis [35] = experiment: Antibacterial activity against vancomycin-sensitive Enterococcus faecalis APV 00404 after 16 to 24 hrs by broth microdilution method; assay type: functional
Enterococcus faecalis [36] = experiment: Antibacterial activity against vancomycin-sensitive Enterococcus faecalis APV 00623 after 16 to 24 hrs by broth microdilution method; assay type: functional
Enterococcus faecium [37] = experiment: Antibacterial activity against vancomycin and teicoplanin-resistant Enterococcus faecium APV 00422 after 16 to 24 hrs by broth microdilution method; assay type: functional
Enterococcus faecium [38] = experiment: Antibacterial activity against Enterococcus faecium APV 00627 after 16 to 24 hrs by broth microdilution method; assay type: functional
Enterococcus faecium [39] = experiment: Antibacterial activity against Enterococcus faecium APV 00626 after 16 to 24 hrs by broth microdilution method; assay type: functional

Sequence of DNA topoisomerase 4 subunit A (Staphylococcus aureus, UniProt P0C1U9) (P0C1U9 whole entry): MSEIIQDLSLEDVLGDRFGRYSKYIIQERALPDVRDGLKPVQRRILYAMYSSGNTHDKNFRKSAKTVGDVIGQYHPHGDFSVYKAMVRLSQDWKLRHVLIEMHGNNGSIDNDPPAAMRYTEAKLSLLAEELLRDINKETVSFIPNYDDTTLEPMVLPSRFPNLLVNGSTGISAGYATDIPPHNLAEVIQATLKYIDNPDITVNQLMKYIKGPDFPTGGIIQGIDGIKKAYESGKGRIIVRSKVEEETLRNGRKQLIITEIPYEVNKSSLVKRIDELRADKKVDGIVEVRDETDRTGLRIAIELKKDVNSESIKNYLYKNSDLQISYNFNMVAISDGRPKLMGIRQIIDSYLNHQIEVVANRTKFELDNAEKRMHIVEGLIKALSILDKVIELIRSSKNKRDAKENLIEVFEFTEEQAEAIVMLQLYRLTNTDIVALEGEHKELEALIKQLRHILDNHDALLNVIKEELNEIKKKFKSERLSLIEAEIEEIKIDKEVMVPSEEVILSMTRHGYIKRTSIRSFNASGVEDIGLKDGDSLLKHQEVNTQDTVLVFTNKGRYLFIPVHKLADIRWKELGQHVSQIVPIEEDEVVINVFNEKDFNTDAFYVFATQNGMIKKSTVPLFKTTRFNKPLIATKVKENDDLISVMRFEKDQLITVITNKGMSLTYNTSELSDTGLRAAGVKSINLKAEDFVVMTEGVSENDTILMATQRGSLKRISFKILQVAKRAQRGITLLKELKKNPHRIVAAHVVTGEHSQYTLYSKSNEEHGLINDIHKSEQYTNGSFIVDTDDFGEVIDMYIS
Sequence of DNA gyrase subunit A (Escherichia coli K-12, UniProt P0AES4) (P0AES4 whole entry): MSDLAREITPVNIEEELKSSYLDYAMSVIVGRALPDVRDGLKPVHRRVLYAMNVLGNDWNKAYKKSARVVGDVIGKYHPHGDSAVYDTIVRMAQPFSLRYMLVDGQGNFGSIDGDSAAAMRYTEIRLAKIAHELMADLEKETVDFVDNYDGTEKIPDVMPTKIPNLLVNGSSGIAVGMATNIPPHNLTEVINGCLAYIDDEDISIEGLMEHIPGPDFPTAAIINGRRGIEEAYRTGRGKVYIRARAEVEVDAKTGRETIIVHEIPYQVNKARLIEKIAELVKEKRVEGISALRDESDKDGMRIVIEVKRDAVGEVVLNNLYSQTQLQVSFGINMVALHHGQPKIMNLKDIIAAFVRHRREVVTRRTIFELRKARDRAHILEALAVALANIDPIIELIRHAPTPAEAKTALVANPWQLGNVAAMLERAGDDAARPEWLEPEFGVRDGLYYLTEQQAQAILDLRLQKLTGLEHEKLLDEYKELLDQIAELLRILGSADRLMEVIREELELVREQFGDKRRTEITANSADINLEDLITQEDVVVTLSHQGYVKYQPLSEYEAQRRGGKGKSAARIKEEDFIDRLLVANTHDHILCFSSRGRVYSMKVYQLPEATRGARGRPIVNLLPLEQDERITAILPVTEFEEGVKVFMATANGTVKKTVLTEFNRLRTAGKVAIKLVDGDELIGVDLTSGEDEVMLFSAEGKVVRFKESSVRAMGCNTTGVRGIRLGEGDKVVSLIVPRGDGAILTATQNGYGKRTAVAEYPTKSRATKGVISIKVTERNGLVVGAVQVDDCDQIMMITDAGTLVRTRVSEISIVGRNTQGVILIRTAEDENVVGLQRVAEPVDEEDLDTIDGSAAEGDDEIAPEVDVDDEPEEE
Sequence of DNA gyrase subunit A (Staphylococcus aureus, UniProt P20831) (P20831 whole entry): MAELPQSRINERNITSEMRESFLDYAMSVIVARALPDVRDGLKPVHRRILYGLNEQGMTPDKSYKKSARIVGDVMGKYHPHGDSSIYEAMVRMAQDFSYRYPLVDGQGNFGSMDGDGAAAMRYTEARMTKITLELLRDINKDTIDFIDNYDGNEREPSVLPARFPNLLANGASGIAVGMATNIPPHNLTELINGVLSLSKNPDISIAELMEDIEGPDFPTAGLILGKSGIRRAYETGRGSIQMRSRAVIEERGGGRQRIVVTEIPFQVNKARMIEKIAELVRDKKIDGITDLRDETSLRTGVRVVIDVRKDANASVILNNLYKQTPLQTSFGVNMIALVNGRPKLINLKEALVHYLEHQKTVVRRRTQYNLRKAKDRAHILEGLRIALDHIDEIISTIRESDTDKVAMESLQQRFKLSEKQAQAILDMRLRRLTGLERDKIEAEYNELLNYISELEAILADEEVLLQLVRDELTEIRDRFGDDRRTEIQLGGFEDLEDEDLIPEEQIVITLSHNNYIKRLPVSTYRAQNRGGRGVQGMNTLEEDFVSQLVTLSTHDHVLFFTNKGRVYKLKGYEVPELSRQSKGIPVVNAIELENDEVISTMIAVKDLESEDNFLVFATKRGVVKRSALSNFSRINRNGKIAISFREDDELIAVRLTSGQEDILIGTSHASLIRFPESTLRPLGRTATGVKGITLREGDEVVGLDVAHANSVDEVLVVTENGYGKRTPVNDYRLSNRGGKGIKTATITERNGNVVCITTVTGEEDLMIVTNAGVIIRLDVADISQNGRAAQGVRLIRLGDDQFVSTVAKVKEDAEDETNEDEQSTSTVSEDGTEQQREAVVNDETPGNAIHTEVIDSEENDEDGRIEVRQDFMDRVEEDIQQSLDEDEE
Sequence of hERG (KCNH2) (Q12809 whole entry): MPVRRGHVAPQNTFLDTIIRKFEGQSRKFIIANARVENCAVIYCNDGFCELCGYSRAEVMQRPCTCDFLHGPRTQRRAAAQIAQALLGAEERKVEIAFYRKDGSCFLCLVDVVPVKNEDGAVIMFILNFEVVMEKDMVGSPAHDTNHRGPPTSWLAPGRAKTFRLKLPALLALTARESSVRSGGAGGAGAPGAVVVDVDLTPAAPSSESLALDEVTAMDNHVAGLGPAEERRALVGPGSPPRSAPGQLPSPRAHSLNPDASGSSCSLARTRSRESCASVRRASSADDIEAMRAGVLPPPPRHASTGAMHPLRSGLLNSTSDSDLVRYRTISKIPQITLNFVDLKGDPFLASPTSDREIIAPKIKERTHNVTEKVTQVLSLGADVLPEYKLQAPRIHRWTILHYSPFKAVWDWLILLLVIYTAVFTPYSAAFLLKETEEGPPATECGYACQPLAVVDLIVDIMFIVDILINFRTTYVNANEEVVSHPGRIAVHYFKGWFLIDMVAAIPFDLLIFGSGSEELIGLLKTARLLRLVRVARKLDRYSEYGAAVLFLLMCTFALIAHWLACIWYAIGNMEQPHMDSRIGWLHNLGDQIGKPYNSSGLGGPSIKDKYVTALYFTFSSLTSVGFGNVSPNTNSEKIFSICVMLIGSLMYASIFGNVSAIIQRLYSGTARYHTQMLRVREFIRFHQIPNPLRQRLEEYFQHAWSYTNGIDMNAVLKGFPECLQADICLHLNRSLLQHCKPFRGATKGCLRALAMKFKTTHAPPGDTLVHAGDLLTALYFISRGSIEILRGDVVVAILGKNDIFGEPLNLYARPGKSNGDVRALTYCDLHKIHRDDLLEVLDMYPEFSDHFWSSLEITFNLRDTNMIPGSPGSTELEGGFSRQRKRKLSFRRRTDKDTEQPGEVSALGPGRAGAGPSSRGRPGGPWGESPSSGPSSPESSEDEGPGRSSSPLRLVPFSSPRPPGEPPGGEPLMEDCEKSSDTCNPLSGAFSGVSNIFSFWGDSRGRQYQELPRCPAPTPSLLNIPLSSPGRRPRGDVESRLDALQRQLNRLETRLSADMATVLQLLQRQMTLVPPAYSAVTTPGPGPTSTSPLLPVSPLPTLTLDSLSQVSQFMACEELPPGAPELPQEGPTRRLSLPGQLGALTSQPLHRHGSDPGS

Row | Compound | MIC (Staphylococcus aureus [3]) | Ratio (Escherichia coli [8]) | MIC (Enterococcus faecium [9]) | MIC (Staphylococcus aureus [10]) | IC50 (DNA gyrase subunit A [11]) | MIC (Pseudomonas aeruginosa) | IC50 (HEK293) | IC50 [12] | MIC (Haemophilus influenzae [13]) | selectivity ratio [14] | MIC (Enterococcus faecalis [15]) | MIC (Neisseria gonorrhoeae) | MIC (Escherichia coli [16]) | MIC (Haemophilus influenzae [17]) | selectivity ratio [18] | MIC (Escherichia coli [20]) | Ratio (Staphylococcus aureus [21]) | MIC (Staphylococcus aureus [22]) | IC50 [23] | selectivity ratio [24] | also measured
1 | COc1ccc2c3conc3c(=O)n(CCN3CCC(NCc4ccc5c(n4)NC(=O)CO5)CC3)c2c1 | 0.12 µg/mL (≈ 0.238 µM) |  |  |  |  |  |  |  |  |  |  |  |  |  |  |  |  |  |  |  | IC50 [1]: 140 nM; MIC (Escherichia coli [2]): 0.12 µg/mL (≈ 0.238 µM); IC50 (DNA gyrase [4]): 1660 nM
2 | N[C@@H](Cn1c(=O)cnc2ccc(F)cc21)C1CCC(NCc2ncc3c(n2)OCC(=O)N3)CC1 (some centres undefined) | 1 µg/mL (≈ 2.14 µM) |  |  |  |  |  |  |  |  |  |  |  |  |  |  |  |  |  |  |  | IC50 [5]: 3 nM; MIC90 (Escherichia coli [6]): 2 µg/mL (≈ 4.28 µM); IC50 (DNA gyrase [7]): 20 nM
3 | COc1ccc2cc(F)nc(N3CCN(CC(O)CNc4cc(=O)oc5ccc(F)cc45)CC3)c2c1 (racemic) |  | >=32 - 267 | 0.12 µg/mL (≈ 0.242 µM) | 4 µg/mL | < 100 nM | 4 µg/mL (≈ 8.06 µM) | 66000 nM | < 100 nM | 0.5 µg/mL (≈ 1.01 µM) | > 208 | 0.25 µg/mL (≈ 0.504 µM) | ≤ 0.06 µg/mL | > 8 µg/mL | 0.5 µg/mL (≈ 1.01 µM) | 66 | 1 µM (≈ 0.497 µg/mL) | >=32 - 267 | 0.03 µg/mL (≈ 0.0604 µM) | 100 nM | 25 | IC50 [19]: > 150000 nM; MIC (Staphylococcus aureus [25]): 8 µg/mL; IC50 (DNA gyrase subunit A [26]): 40 nM; Ratio (Staphylococcus aureus [27]): >=32 - 267; MIC (Staphylococcus aureus [28]): < 0.12 µM; IC50 (HT-29): > 100000 nM; selectivity ratio [29]: > 5500; IC50 (HepG2): 25000 nM; MIC (Klebsiella pneumoniae): 4 µg/mL (≈ 8.06 µM)
4 | O=c1nc(NCC(O)CN2CCN(c3nc(F)cc4ccc(F)cc34)CC2)c2cc(F)ccc2o1 (racemic) |  | >=32 - 267 | 0.25 µg/mL (≈ 0.515 µM) | 4 µg/mL | 20 nM | 2 µg/mL (≈ 4.12 µM) | 52000 nM | 40 nM | 0.12 µg/mL (≈ 0.247 µM) | > 258 | 0.12 µg/mL (≈ 0.247 µM) | ≤ 0.06 µg/mL | > 8 µg/mL | 0.06 µg/mL (≈ 0.124 µM) | 51 | 1.02 µM (≈ 0.495 µg/mL) | >=32 - 267 | 0.03 µg/mL (≈ 0.0618 µM) | 100 nM | 30 | MIC (Enterococcus faecalis [30]): 0.06 µg/mL (≈ 0.124 µM); MIC (Enterococcus faecium [31]): 0.25 µg/mL (≈ 0.515 µM); MIC (Enterococcus faecium [32]): 0.06 µg/mL (≈ 0.124 µM); inhibition at 5 min, 10 µM (hERG (KCNH2)): 24%; MIC (Enterococcus faecalis [33]): 0.06 µg/mL (≈ 0.124 µM); IC50 (HaCaT): > 100000 nM; MIC (Enterococcus faecalis [34]): 0.06 µg/mL (≈ 0.124 µM); MIC (Enterococcus faecalis [35]): 0.12 µg/mL (≈ 0.247 µM); MIC (Enterococcus faecalis [36]): 0.12 µg/mL (≈ 0.247 µM); MIC (Enterococcus faecium [37]): 0.12 µg/mL (≈ 0.247 µM); MIC (Staphylococcus aureus [25]): 4 µg/mL; IC50 (DNA gyrase subunit A [26]): 100 nM; MIC (Enterococcus faecium [38]): 0.5 µg/mL (≈ 1.03 µM); Ratio (Staphylococcus aureus [27]): >=32 - 267; MIC (Staphylococcus aureus [28]): < 0.12 µM; MIC (Enterococcus faecium [39]): 32 µg/mL (≈ 65.9 µM); selectivity ratio [29]: > 433; IC50 (HepG2): 31000 nM; MIC (Klebsiella pneumoniae): 1 µg/mL (≈ 2.06 µM)
